For assay [1], the system named is peripheral lymphocytes. The assay can be described thus: Lymphocyte culture with or without rapamycin, LDH cytotoxicity assay for number of cell divisions. It is filed as cell-based, human. As to conditions: 100 ng/ml rapamycin, 24 hours. As for the experimental part: (§1) Peripheral lymphocytes (thawed from storage as appropriate) were cultured in a growth medium of RPMI 1640 supplemented with 15% FCS (heat inactivated), plus 2% I-glutamine and 1% penicillin/streptamycin, in the presence of 2.5% phytohaemagglutinin (PHA) for 48 hours at 37° C., 5% CO2, to reach exponential growth. Cultures were prepared in a 96 well plate format, with 6 or 8 wells allocated to each patient (test subject). One single plate could therefore hold eleven sets of patient samples, plus one set of standard samples.
(§2) Once exponential growth of the cells was achieved, the lymphocyte cultures were treated with either growth medium (as above) alone, or the same growth medium plus 100 ng/ml rapamycin, in triplicate/quadruplicate for each patient.
(§3) Cell cultures were harvested after 24 hours. Samples intended for cytotoxicity testing (LDH assay) were frozen at −20° C., whereas samples intended for analysis by flow cytometry were fixed in 85% cold ethanol.
Measurement of cell numbers in the cell cultures prepared in 3) was carried out by LDH cytotoxicity assay using the CytoTox 96® Non-Radioactive Cytotoxicity Assay Kit from Promega, according to the instructions supplied by the manufacturer.
The assays were set up in 96-well plate format, using 30 μl of lymphocyte culture and 50 μl of LDH substrate mix per well (substrate mix is a component of the CytoTox kit, diluted prior to use). Patient samples cultured with or without rapamycin were each tested in triplicate. The assay plates also included diluted standards of LDH positive control (serial dilutions of LDH positive control in lymphocyte culture medium; triplicate samples of 30 μl at each of 1:2500, 1:5000, 1:10,000, 1:20,000, 1:40,000, 1:80,000 and 1:160,000 dilution), to allow construction of a calibration curve.
The reactions were then stopped by adding 50 μl of cold Stop Solution (component of the CytoTox kit) to each well. Optical density was then read at 490 nm.
(§4) The LDH cytotoxicity assay gave a value for total cell numbers in each lymphocyte culture (with or without rapamycin). […]

Assay [2] deals with peripheral lymphocytes. The experiment in a line: Lymphocyte culture with or without rapamycin, flow cytometry cell cycle analysis (TG1). In kind it is cell-based, human. As to conditions: 100 ng/ml rapamycin, 24 hours. Here is the method:
as §1, §2, §3
96-well plate lymphocytes cultures (with or without rapamycin) fixed in ethanol (end of step 3) were spun at 400 g for 10 minutes at RT with no breaks. Supernatants were removed and the cell pellets resuspended in 0.300 ml ice-cold PBS/well. The plates were spun again at 400 g for 10 minutes at RT with no breaks. Supernatants were again removed and the cell pellets re-suspended in 0.080 ml of propidium iodide (P1) staining solution/well.
The flow cytometer (FacsCalibur BD) was set up to distinguish well between the G1 and G2 peaks (at least 200 units apart).
Using as a Marker measure the PI reading equivalent to the G1 peak and the G2 peak the parameter X was calculated based on the relation: X=(G2peak−G1peak)/4
as §4
[formula] fG1 is the proportion of cells in the G1 phase of the cell cycle as measured by flow cytometry.
Finally, TG1 values calculated for rapamycin treated and untreated lymphocyte cultures from the same test subject were compared.

The mark [3] stands for this setting: subjects with 0 ApoE4 alleles (n=54).
Where [4] appears, read: subjects with 1 ApoE4 allele (n=38).
Where [5] appears, read: subjects with 2 ApoE4 alleles (n=8).

Data on one compound can be found in patent US9957566B2, “Screening method” (THE UNIVERSITY OF BIRMINGHAM, priority 2009, dated 2018).

On to `CO[C@H]1C[C@@H]2CC[C@@H](C)[C@@](O)(O2)C(=O)C(=O)N2CCCC[C@H]2C(=O)O[C@H]([C@H](C)C[C@@H]2CC[C@@H](O)[C@H](OC)C2)CC(=O)[C@H](C)/C=C(\C)[C@@H](O)[C@@H](OC)C(=O)[C@H](C)C[C@H](C)/C=C/C=C/C=C/1C` [Rapamycin, rapamycin], for which the “n rapa/n = change in the number of cell divisions under the effect of Rapamycin relative to control cultures from the same individual (mean)” value is listed as 1.3044 with peripheral lymphocytes [1] (setting [3]), 1.3775 in the assay with peripheral lymphocytes [1] (setting [4]) and 1.4624 in the assay with peripheral lymphocytes [1] (setting [5]). The “TG1 Rapa = length of the G1 time under the effect of Rapamycin (mean)” value with peripheral lymphocytes [2] (setting [3]) amounted to 13.9944; with peripheral lymphocytes [2] (setting [4]) it was 13.7038; in the assay with peripheral lymphocytes [2] (setting [5]), 13.1059.
